The target of series [1] is T1, Interleukin-23 receptor (Homo sapiens, UniProt Q5VWK5).
T1 sequence (Q5VWK5 whole entry): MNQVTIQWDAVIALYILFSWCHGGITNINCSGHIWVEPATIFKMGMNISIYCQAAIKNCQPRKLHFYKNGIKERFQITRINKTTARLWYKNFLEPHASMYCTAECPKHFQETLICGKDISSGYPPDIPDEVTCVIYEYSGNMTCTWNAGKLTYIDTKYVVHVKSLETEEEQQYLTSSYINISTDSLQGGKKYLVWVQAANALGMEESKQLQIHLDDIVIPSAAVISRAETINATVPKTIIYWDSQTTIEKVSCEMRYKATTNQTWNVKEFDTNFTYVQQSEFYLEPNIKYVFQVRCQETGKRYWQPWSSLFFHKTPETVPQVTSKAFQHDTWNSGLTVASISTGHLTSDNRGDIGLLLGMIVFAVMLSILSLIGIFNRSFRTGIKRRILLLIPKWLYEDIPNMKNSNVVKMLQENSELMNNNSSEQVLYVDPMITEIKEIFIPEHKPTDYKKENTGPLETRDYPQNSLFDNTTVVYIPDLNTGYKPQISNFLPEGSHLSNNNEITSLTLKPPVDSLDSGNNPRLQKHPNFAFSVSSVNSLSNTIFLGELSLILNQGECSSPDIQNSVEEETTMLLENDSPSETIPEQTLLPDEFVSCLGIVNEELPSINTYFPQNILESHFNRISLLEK
The experiment in a line: Inhibition of interleukin-23 receptor in human natural killer cells assessed as reduction in IL23/IL18-induced IFNgamma production incubated for 20 to 24 hrs by ELISA. The format is cell-based.

Series [2] concerns the target T1, Interleukin-23 receptor. The experiment in a line: Inhibition of interleukin-23 binding to human interleukin-23 receptor incubated for 2 hrs by competitive binding ELISA.
The target of series [3] is T1, Interleukin-23 receptor. The experiment in a line: Inhibition of interleukin-23 receptor in human DB cells assessed as reduction in IL-23-stimulated STAT3 phosphorylation incubated for 30 mins by HTRF assay. The class given is cell-based. On the technique in general: TR-FRET usually uses a lanthanide donor and a delayed reading to cut background.
The nature of series [4]: Inhibition of interleukin-23 binding to rat interleukin-23 receptor incubated for 2 hrs by competitive binding ELISA. (In an ELISA, binding on a coated surface is turned into a signal by an enzyme label.)
Series [5] in a line: Half life in simulated gastric fluid at 20 uM by LC-MS/MS analysis. The format is ADME.
A short description of series [6]: Half life in simulated intestinal fluid at 20 uM by LC-MS/MS analysis. The format is ADME.

For 14 compounds, IC50 and half-life results are on record in ChEMBL document CHEMBL4417631, “Oral peptide inhibitors of interleukin-23 receptor and their use to treat inflammatory bowel diseases” (2017).

pIC50: −log10 of the molar value. *1 amine or outer side, *2 acyl side, *3 side chain or, on linkers, in order; H or OH if unused. Where a SMILES comes first, the peptide text is derived from it. Bridges are numbered along the chain shown (N, C = ends). [ ]: non-standard residue; d: D form. Abu(4-yl) = O=C([C@H](CC[*:3])N[*:1])[*:2]; 2Nal = N[C@@H](Cc1ccc2ccccc2c1)C(=O)O; AEF = NCCOc1ccc(C[C@H](N)C(=O)O)cc1; αMeL = CC(C)C[C@](C)(N)C(=O)O; αMeK = C[C@](N)(CCCCN)C(=O)O

The term pIC50 denotes −log10 of the IC50, conventionally taken in molar units. For `COc1ccc(C[C@H](NC(=O)[C@@H](NC(=O)[C@H](CCC(N)=O)NC(=O)[C@H](Cc2c[nH]c3ccccc23)NC(=O)[C@@H](NC(=O)[C@H](CC(N)=O)NC(=O)[C@@H](NC(=O)[C@@H](Cc2ccccc2)NC(C)=O)C(C)(C)S)[C@@H](C)O)C(C)(C)S)C(=O)N[C@@H](Cc2ccc3ccccc3c2)C(=O)NC2(C(=O)N[C@@H](CCCNC(N)=O)C(=O)N[C@@H](CC(N)=O)C(=O)N[C@@H](CC(N)=O)C(N)=O)CCOCC2)cc1`, the pIC50 on Interleukin-23 receptor [1] is > 8.00.
The term half-life denotes how long it takes for the measured level to halve. On to `COc1ccc(C[C@H](NC(=O)[C@@H](NC(=O)[C@H](CCC(N)=O)NC(=O)[C@H](Cc2c[nH]c3ccccc23)NC(=O)[C@@H](NC(=O)[C@H](CCC(N)=O)NC(=O)[C@@H](NC(=O)CCC(=O)O)C(C)(C)S)[C@@H](C)O)C(C)(C)S)C(=O)N[C@@H](Cc2ccc3ccccc3c2)C(=O)N[C@@](C)(CCCCN)C(=O)N[C@@H](CCCCNC(C)=O)C(=O)N[C@@H](CC(N)=O)C(=O)NCC(N)=O)cc1`, for which the negative-log IC50 (pIC50) at Interleukin-23 receptor [2] is 7.00 to 7.60; at Interleukin-23 receptor [3] it was > 8.00; in series [4] it was 7.00 to 7.60. Moreover, the half-life at 20 µM in series [5] is 3 to 6 h; in series [6], > 6 h.
For `COc1ccc(C[C@H](NC(=O)[C@@H]2CSCC[C@H](NC(C)=O)C(=O)N[C@@H](CCC(N)=O)C(=O)N[C@@H]([C@@H](C)O)C(=O)N[C@@H](Cc3c[nH]c4ccccc34)C(=O)N[C@@H](CCC(N)=O)C(=O)N2)C(=O)N[C@@H](Cc2ccc3ccccc3c2)C(=O)N[C@@](C)(CCCN)C(=O)N[C@@H](CCC(=O)O)C(=O)N[C@@H](CC(N)=O)C(=O)NCC(N)=O)cc1`, the pIC50 at Interleukin-23 receptor [2] was 7.60 to 8.00; on Interleukin-23 receptor [3], > 8.00; in series [4] it was 7.00 to 7.60. The figures for the half-life at 20 µM in series [5] and in series [6] were < 1 h and 2 to 3 h, respectively.
For the compound `COc1ccc(C[C@H](NC(=O)[C@H]2NC(=O)[C@H](CCC(N)=O)NC(=O)[C@H](Cc3c[nH]c4ccccc34)NC(=O)[C@H]([C@@H](C)O)NC(=O)[C@H](CCC(N)=O)NC(=O)[C@@H](NC(C)=O)CCSC2(C)C)C(=O)N[C@@H](Cc2ccc3ccccc3c2)C(=O)N[C@@](C)(CCCCN)C(=O)N[C@@H](CCC(=O)O)C(=O)N[C@@H](CC(N)=O)C(=O)NCC(N)=O)cc1`, the results for the pIC50 (on Interleukin-23 receptor [2]; at Interleukin-23 receptor [3]; in series [4]) were 6.00 to 7.00, 7.00 to 7.60 and 6.00 to 7.00, respectively. Also, the figures for the half-life at 20 µM in series [5] and in series [6] were 2 to 3 h and 3 to 6 h, respectively.
Take `CC(=O)NCCOc1ccc(C[C@H](NC(=O)[C@@H]2CSCC[C@H](NC(C)=O)C(=O)N[C@@H](CCC(N)=O)C(=O)N[C@@H]([C@@H](C)O)C(=O)N[C@@H](Cc3c[nH]c4ccccc34)C(=O)N[C@@H](CCC(N)=O)C(=O)N2)C(=O)N[C@@H](Cc2ccc3ccccc3c2)C(=O)N[C@@](C)(CCCCN)C(=O)N[C@@H](CCC(=O)O)C(=O)N[C@@H](CC(N)=O)C(=O)NCC(N)=O)cc1`: the pIC50 (at Interleukin-23 receptor [2]; at Interleukin-23 receptor [3]; in series [4]) was > 8.00 throughout. Besides, the half-life at 20 µM was < 1 h in series [5] and 1 to 2 h in series [6].
For the compound `CC(=O)NCCCC[C@H](NC(=O)[C@](C)(CCCCN)NC(=O)[C@H](Cc1ccc2ccccc2c1)NC(=O)[C@H](Cc1ccc(OCCN)cc1)NC(=O)[C@@H]1CSCC[C@H](NC(C)=O)C(=O)N[C@@H](CCC(N)=O)C(=O)N[C@@H]([C@@H](C)O)C(=O)N[C@@H](Cc2c[nH]c3ccccc23)C(=O)N[C@@H](CCC(N)=O)C(=O)N1)C(=O)N[C@@H](CC(N)=O)C(=O)NCC(N)=O`, the pIC50 (on Interleukin-23 receptor [2]; on Interleukin-23 receptor [3]; in series [4]) was > 8.00 throughout. In addition, the half-life at 20 µM in series [5] and in series [6] was > 6 h in each case.
With `CC(=O)N[C@@H](CC(C)C)C(=O)N[C@H]1CCSC[C@@H](C(=O)N[C@@H](Cc2ccc(OCCN)cc2)C(=O)N[C@@H](Cc2ccc3ccccc3c2)C(=O)N[C@@](C)(CCCCN)C(=O)N[C@@H](CCC(=O)O)C(=O)N[C@@H](CC(N)=O)C(=O)N[C@@H](CC(N)=O)C(N)=O)NC(=O)[C@H](CCC(N)=O)NC(=O)[C@H](Cc2c[nH]c3ccccc23)NC(=O)[C@H]([C@@H](C)O)NC(=O)[C@H](CCC(N)=O)NC1=O` (Ac-L[Abu(4-yl)]QTWQC[AEF][2Nal][αMeK]ENN-NH2; thioether 2-7), the pIC50 (on Interleukin-23 receptor [2]; at Interleukin-23 receptor [3]; in series [4]) was > 8.00 throughout. Besides, the half-life at 20 µM in series [5] is 2 to 3 h; in series [6], > 6 h.
Take `COc1ccc(C[C@H](NC(=O)[C@@H]2CSCC[C@H](NC(C)=O)C(=O)N[C@@H](CCC(N)=O)C(=O)N[C@@H]([C@@H](C)O)C(=O)N[C@@H](Cc3c[nH]c4ccccc34)C(=O)N[C@@H](CCC(N)=O)C(=O)N2)C(=O)N[C@@H](Cc2ccc3ccccc3c2)C(=O)N[C@@](C)(CCCN)C(=O)N[C@@H](CCCCNC(C)=O)C(=O)N[C@@H](CC(N)=O)C(=O)NCC(N)=O)cc1`: the pIC50 at Interleukin-23 receptor [2] was 7.60 to 8.00; at Interleukin-23 receptor [3], > 8.00; in series [4], 7.60 to 8.00. Besides, the values for the half-life at 20 µM in series [5] and in series [6] were < 1 h and 2 to 3 h, respectively.
On to `CC(=O)N[C@@H](CCC(=O)O)C(=O)N[C@H]1CCSC[C@@H](C(=O)N[C@@H](Cc2ccc(OCCN)cc2)C(=O)N[C@@H](Cc2ccc3ccccc3c2)C(=O)N[C@@](C)(CCCCN)C(=O)N[C@@H](CCC(=O)O)C(=O)N[C@@H](CC(N)=O)C(=O)N[C@@H](CC(N)=O)C(N)=O)NC(=O)[C@H](CCC(N)=O)NC(=O)[C@H](Cc2c[nH]c3ccccc23)NC(=O)[C@H]([C@@H](C)O)NC(=O)[C@H](CCC(N)=O)NC1=O`, for which the pIC50 (on Interleukin-23 receptor [2]; on Interleukin-23 receptor [3]; in series [4]) was > 8.00 in each case. Further, the results for the half-life at 20 µM in series [5] and in series [6] were 2 to 3 h and > 6 h, respectively.
As to `CC(=O)NCCCC[C@H](NC(=O)[C@](C)(CCCCN)NC(=O)[C@H](Cc1ccc2ccccc2c1)NC(=O)[C@H](Cc1ccc(OCCN)cc1)NC(=O)[C@@H]1CSCC[C@H](NC(=O)CCC(=O)O)C(=O)N[C@@H](CCC(N)=O)C(=O)N[C@@H]([C@@H](C)O)C(=O)N[C@@H](Cc2c[nH]c3ccccc23)C(=O)N[C@@H](CCC(N)=O)C(=O)N1)C(=O)N[C@@H](CC(N)=O)C(=O)NCC(N)=O`, the pIC50 (on Interleukin-23 receptor [2]; on Interleukin-23 receptor [3]; in series [4]) was > 8.00 throughout. Further, the half-life at 20 µM was 3 to 6 h in series [5] and > 6 h in series [6].
As to `CC(=O)NCCCC[C@H](NC(=O)[C@](C)(CCCCN)NC(=O)[C@H](Cc1ccc2ccccc2c1)NC(=O)[C@H](Cc1ccc(C(N)=O)cc1)NC(=O)[C@@H]1CSCC[C@H](NC(C)=O)C(=O)N[C@@H](CCC(N)=O)C(=O)N[C@@H]([C@@H](C)O)C(=O)N[C@@H](Cc2c[nH]c3ccccc23)C(=O)N[C@@H](CCC(N)=O)C(=O)N1)C(=O)N[C@@H](CC(N)=O)C(=O)NCC(N)=O`, the pIC50 at Interleukin-23 receptor [2] is 7.60 to 8.00; on Interleukin-23 receptor [3], > 8.00; in series [4], 7.00 to 7.60. Also, the half-life at 20 µM was < 1 h in series [5] and 1 to 3 h in series [6].
The corresponding values for `CC(=O)NCCCC[C@H](NC(=O)[C@](C)(CC(C)C)NC(=O)[C@H](Cc1ccc2ccccc2c1)NC(=O)[C@H](Cc1ccc(OCCN)cc1)NC(=O)[C@@H]1CSCC[C@H](NC(C)=O)C(=O)N[C@@H](CCC(N)=O)C(=O)N[C@@H]([C@@H](C)O)C(=O)N[C@@H](Cc2c[nH]c3ccccc23)C(=O)N[C@@H](CCC(N)=O)C(=O)N1)C(=O)N[C@@H](CC(N)=O)C(=O)N[C@@H](CC(N)=O)C(N)=O` (Ac-[Abu(4-yl)]QTWQC[AEF][2Nal][αMeL]K(Ac)NN-NH2; thioether 1-6) are > 8.00, > 8.00, > 8.00, < 1 h and 2 to 3 h.
The corresponding values for `COc1ccc(C[C@H](NC(=O)[C@@H](NC(=O)[C@H](CCC(N)=O)NC(=O)[C@H](Cc2c[nH]c3ccccc23)NC(=O)[C@@H](NC(=O)[C@H](CCC(N)=O)NC(=O)[C@@H](NC(C)=O)C(C)(C)S)[C@@H](C)O)C(C)(C)S)C(=O)N[C@@H](Cc2ccc3ccccc3c2)C(=O)N[C@@](C)(CCCCN)C(=O)N[C@@H](CCCCNC(C)=O)C(=O)N[C@@H](CC(N)=O)C(=O)NCC(N)=O)cc1` are 7.00 to 7.60, > 8.00, 7.00 to 7.60, > 6 h and > 6 h.
The corresponding values for `COc1ccc(C[C@H](NC(=O)[C@@H]2CSCC[C@H](NC(C)=O)C(=O)N[C@@H](CCC(N)=O)C(=O)N[C@@H]([C@@H](C)O)C(=O)N[C@@H](Cc3c[nH]c4ccccc34)C(=O)N[C@@H](CCC(N)=O)C(=O)N2)C(=O)N[C@@H](Cc2c[nH]c3ccccc23)C(=O)N[C@@](C)(CCCCN)C(=O)N[C@@H](CCCCNC(C)=O)C(=O)N[C@@H](CC(N)=O)C(=O)NCC(N)=O)cc1` are 7.60 to 8.00, 7.60 to 8.00, 7.60 to 8.00, < 1 h and > 6 h.
